The results in this text go back to publication PMC8762745 (ACS Medicinal Chemistry Letters, 2021).

The target of the assay is T1, human TAAR1 receptor (Homo sapiens, UniProt Q96RJ0).
T1 sequence (Q96RJ0 1-339): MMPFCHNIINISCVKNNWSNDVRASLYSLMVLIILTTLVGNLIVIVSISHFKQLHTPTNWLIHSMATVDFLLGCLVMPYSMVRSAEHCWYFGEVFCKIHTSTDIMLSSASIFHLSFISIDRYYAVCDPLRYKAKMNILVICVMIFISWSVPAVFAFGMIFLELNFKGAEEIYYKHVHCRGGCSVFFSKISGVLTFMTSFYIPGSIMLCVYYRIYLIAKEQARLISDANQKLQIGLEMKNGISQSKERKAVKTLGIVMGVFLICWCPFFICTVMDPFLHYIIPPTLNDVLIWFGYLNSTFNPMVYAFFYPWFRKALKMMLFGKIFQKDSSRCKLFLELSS
The experiment in a line: Human TAAR1 agonist assay. The settings on record: for fold less active for TAAR1 than β-PEA (2): EC50 ratio versus β-PEA (2); for fold less potent for TAAR1 than racemic ulotaront 20: EC50 ratio versus racemic ulotaront 20.

Molecules are shown by their SMILES.

For `NC[C@H](O)c1ccc(O)cc1` [6a, (−)-octopamine, reference compound], the “fold less active for TAAR1 than p-tyramine (4)” value was 21 fold.
Take `NC[C@@H](O)c1ccc(O)cc1` [6b, (+)-octopamine, reference compound]: the “fold less active for TAAR1 than p-tyramine (4)” value stood at 54 fold.
For the molecule `CNC[C@H](O)c1ccc(O)cc1` [7a, (−)-synephrine, reference compound], the “fold reduced TAAR1 activity compared to 6a” value (EC50 ratio versus (−)-octopamine 6a) is listed as “approximately 3 fold”.
`CNCCc1ccccc1` [compound 3, N-methylphenethylamine, reference compound]: the “fold less active for TAAR1 than β-PEA (2)” value was “approximately 10 fold”.
On to `NCCc1ccc(O)cc1` [compound 4, p-tyramine, reference compound], for which the “fold less active for TAAR1 than β-PEA (2)” value is “about 5 fold”.
On the same count and under the same terms, in the case of `NCCc1cccc(O)c1` [compound 5, m-tyramine, reference compound] it was ~23 fold; in that of `NCCc1c[nH]c2ccccc12` [compound 10, tryptamine, reference compound], “about 150 fold”.
`CNC[C@]1(C)OCCc2ccsc21` [compound 21]: the “fold less potent for TAAR1 than ulotaront” value is > 1000 fold.
As to `NC[C@@H]1OCCc2ccsc21` [compound 22], the “fold more potent for TAAR1 than ulotaront” value is reported as “about 11 fold”.
On to `c1cc2c(s1)[C@H](CN1CCCC1)OCC2` [compound 24], for which the “fold less potent for TAAR1 than ulotaront” value is 189 fold.
Turning to `NCC[C@@H]1OCCc2ccsc21` [compound 25], the “fold reduced TAAR1 activity compared to N-demethylated analogue 22” value (EC50 ratio versus 22) came out at 67 fold.
Regarding `CNCC1OCCCc2ccsc21` (stereo not shown) [compound 26], the “fold less potent for TAAR1 than racemic ulotaront 20” value was “approximately 6 fold”.
Regarding `NCC1OCCCc2ccsc21` (stereo not shown) [compound 27], for the setting “EC50 ratio versus 26”, the “fold more potent for TAAR1 compared to 26” value is on record as “about 5 fold”.
Turning to `CNCC1OCCc2cscc21` (stereo not shown) [compound 28], the “fold less potent for TAAR1 than racemic ulotaront 20” value was ~6 fold.
As to `CNC[C@@H]1OCCc2sccc21` [compound 29], the “fold less potent for TAAR1 than ulotaront” value stood at 3 fold.
As for `NCCc1cccs1` [compound 30, thiophen-2-ylethanamine], where the note is “EC50 ratio versus 31”, the “fold more potent for TAAR1 than the other ring opened thiophene (31)” value was “approximately 3 fold”.
